Laboratory results: US12059413B2, “Methods of inhibiting viruses using compositions targeting TSG101-ubiquitin interaction” (The Research Foundation for the State University of New York, priority 2016, dated 2024)

Columns and labels:
[1] = system: Tsg101 midbody localization; experiment: Tsg101 midbody localization in dividing cells; format: cell-based; conditions: N16 50 uM; 200 cells sampled; 12% in absence
Procedure: (§1) FIG. 20A-C. N16 inhibition is virus-specific. A) N16 IC50 for Hela and 293T cells. […] Values were calculated by measuring metabolic activity (WST-1 Assay, Roche Applied Science) after cells were grown for 24 hr in N16. Data points represent the mean of 2 assays, 3 time points each for each cell line. […] Values in the absence or presence of N16 (50 uM) were 12% and 13%, respectively). C) N16 effect on EGF-stimulated EFGR degradation. Cells maintained for 24 hr in media containing DMSO alone or DMSO and N16 were stimulated with EGF ligand for a 90 min period and then assessed for EGFR steady-state level by Western analysis. EGFR levels for unstimulated and stimulated sample pairs are shown. A) n=2; B) n=2; C) n=2.
(§2) We investigated the specificity of the inhibitory effect. F15 and N16 impaired Tsg101-co-localization with Gag on the plasma membrane (c.f, FIG. 19) and reduced release of the VLPs assembled by Gag (c.f, FIG. 15). […] Cell metabolic activity was not affected after exposure to N16 for 24 hr; it decreased by less than 10% after exposure to N16 for 48 hr (not shown). Tsg101 localization to the midbody of dividing cells requires its recruitment to that location by centrosomal protein of 55k (CEP55) which binds a site in the Tsg101 Pro-rich domain (aa 154-166) (Lee, H. H., et al. (2008)). […]

Hela cells = experiment: Metabolic activity, WST-1 assay, Hela cells; format: cell-based; conditions: Homo sapiens, 24 hr in N16, WST-1, read-out: IC50 (95% confidence levels), metabolic activity
Procedure: as §1
Cells were grown in 96-well trays for 24 hr with increasing levels of drug, metabolic activity was measured using WST-1colorimetric assay (Roche), and IC50 values were calculated (Prism 6, Graph Pad Software Inc.).

EGFR = experiment: EGF-stimulated EGFR degradation, Western analysis; format: cell-based; conditions: concentrations well above 50 JAM
Procedure: as §1, §2

HIV-1 NL4-3 = experiment: Spreading infection of Jurkat cells infected with NL4-3, p24 capture ELISA; format: cell-based
Procedure: FIG. 16A-B. N16 inhibition of HIV-1 transmission in a spreading infection in Jurkat cells. A) Schematic diagram summarizing experimental protocol. Jurkat cells (triplicate samples of 5×10^5/well) were incubated for 2 hr with HIV-1 NL4-3 in treatment media containing 50 μM N16 or control vehicle (DMSO). At the end of this period, unbound virus was removed by centrifugation and the cells washed once, resuspended in fresh media and returned to the 37° C. incubator. For the next 15 days, tissue culture media was removed daily by centrifugation and saved for virus measurement by p24 capture ELISA and cells were replenished with fresh control or N16 treatment media. B) ELISA readings. In control media (containing DMSO), virus replication peaked at day 11; in the presence of N16, production peaked at 13 days. […] Cells were monitoring periodically for viability by Trypan Blue assay. To test their ability to produce virus after this sustained exposure, at day 15 the N16-treated cells were washed, fresh media without inhibitor was added and the cells were incubated 4 days longer (to day 19). The supernatant was collected, the cells were washed again and then incubated for another 4 days in media with inhibitor, adding fresh inhibitor daily. The final supernatant was collected on day 23. […] Thus, the cells maintained the ability to produce virus and the virus in the population at 15 days was essentially as susceptible to N16 as the initial virus population used to infect the Jurkat cells. Number of independent trials: n=2.
To investigate whether the ability to bind the UEV domain could affect Tsg101's function during HIV's budding process, viral particle production was tested (FIG. 15). […] Addition of N16 at 24 hr post-transfection had little effect on budding even at higher concentrations (FIG. 15A, bottom). […] After 15 days, virus production was reduced by 15-fold. Cell viability was maintained under these conditions of sustained drug exposure as indicated by trypan blue viability assay every 3rd day. […] Following the re-addition of N16 to the media, virus titer at this point was reduced 50-fold 4 days indicating maintenance of drug susceptibility.

Plasma level in humans = format: in vivo, human; conditions: equivalent of the plasma level
Source text: Targeting of the Gag-Tsg101 interaction for inhibition of HIV budding has been an active field over the last fifteen years, mostly focusing on interference with PTAP binding (Tavassoli, A. et al. (2008); Chen, H., et al. (2010); Kim, S. E. et al. (2011); Lu, J. et al. (2014)). Theoretically, a synthetic peptide that mimics the PTAP motif could compete for the PTAP binding pocket of Tsg101 in cells. […]; Liu, F. et al. (2008)). Although high-resolution structures for the highest affinity complexes have not yet been elucidated, docking studies indicate that these PTAP inhibitors bind to the hydrophobic surface of Tsg101 around residue T56 (Kim, S. E. et al. (2011)). […]. […] Indeed, the dose of N16 provided is 40 milligrams. Seven microgram/ml is achieved in human plasma (Hunt, R. H. et al. (2005)), a level that is equivalent to a 20 micromolar concentration of the drug. The lowest concentration that we achieved in tissue culture assays when N16 was provided under the optimal conditions described in the text (c.f FIG. 15) was 25-50 micromolar. The current availability of the F15/N16 compounds in diverse long-acting slow-release formulations is another feature adaptable to further refined development of the F15/N16 compounds that could address issues pertaining to drug regimen adherence. […]

In the case of `COc1ccc2[nH]c([S+]([O-])Cc3ncc(C)c(OC)c3C)nc2n1` (stereo not drawn) [N16, tenatoprazole], the “frequency of cells exhibiting Tsg101 midbody localization” value [1] is reported as 13%, the IC50 (Hela cells) is reported as 156 to 205 µM and the EGFR down-regulation function (EGFR) is reported as “unimpaired”. For the same compound, the “reduction of virus production” value (HIV-1 NL4-3; 50 μM N16, Jurkat cells, peak values / after 15 days) was 15 fold, the “time of peak virus production” value (HIV-1 NL4-3; 50 μM N16, control peaked at day 11) was 13 days and the “resurgence of virus when N16 removed” value (HIV-1 NL4-3; media without inhibitor, 4 days (day 15 to 19)) was 10 fold. The “reduction of virus on re-addition of N16” value (HIV-1 NL4-3; re-addition of N16, 4 days (to day 23)) was 50 fold, the “cell viability, trypan blue assay” value (HIV-1 NL4-3; sustained drug exposure, every 3rd day) was “maintained” and the “plasma level, equivalent concentration” value (Plasma level in humans) was 20 µM.
